Results taken from patent US20240252488A1 (KOREA RESEARCH INSTITUTE OF CHEMICAL TECHNOLOGY, priority 2020, published 2024).

Legend:
[1] = test system: FADD−/− Jurkat cells; assay: Necroptosis inhibition assay, TNF-α-induced necroptosis (CellTiter-Glo 2.0); type: cell-based, human; conditions: TNF-α 15 ng/mL, FADD−/− Jurkat cells; for Necroptosis inhibition assay (Rescue %) 1 μM: compound 1 μM; for Necroptosis inhibition assay (Rescue %) 10 μM: compound 10 μM
Outline: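 FADD−/− Jurkat cells preincubated 30 min at room temperature with compound at 0.1, 1 and 10 μM final, then stimulated with TNF-α (15 ng/mL final) for 20–24 h at 37 °C, 5% CO2. Viability read as ATP luminescence; cytotoxicity and necroptosis inhibition rate calculated from luminescence values.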

[2] = target: T1, MLKL (Homo sapiens, UniProt Q8NB16); assay: Measurement of binding affinity with MLKL receptor (competitive binding assay, Kd); set-up: made in house; host or cells: HEK 293 cell line (T7 phage in E. coli BL21-derived host is also described)
T1 sequence (Q8NB16 1-471): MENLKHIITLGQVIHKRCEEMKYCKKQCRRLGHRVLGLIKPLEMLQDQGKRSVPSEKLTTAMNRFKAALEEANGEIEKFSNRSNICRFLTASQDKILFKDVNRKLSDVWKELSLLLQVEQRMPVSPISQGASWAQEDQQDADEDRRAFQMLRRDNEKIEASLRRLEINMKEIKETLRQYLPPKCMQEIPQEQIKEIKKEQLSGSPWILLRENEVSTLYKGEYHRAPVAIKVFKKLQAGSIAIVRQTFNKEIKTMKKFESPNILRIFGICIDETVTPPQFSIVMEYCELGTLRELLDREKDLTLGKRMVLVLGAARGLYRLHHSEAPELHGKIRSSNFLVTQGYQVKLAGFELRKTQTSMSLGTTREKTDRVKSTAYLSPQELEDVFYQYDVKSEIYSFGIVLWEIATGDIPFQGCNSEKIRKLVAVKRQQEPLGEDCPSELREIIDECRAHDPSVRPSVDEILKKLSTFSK
Outline: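 Kd comes from a bead-based competition format: compound-dependent loss of DNA-tagged, HEK 293-expressed MLKL capture, measured as eluate kinase by qPCR. Final DMSO is 0.9%.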

[3] = target: T1, MLKL; assay: MLKL degradation assay in HepG2 cell line (western blot); type: cell-based; set-up: endogenous in cells; host or cells: HepG2 or HaCaT; conditions: cell line not given; for Degradation assay (Degradation %) 1 μM: compound 1 μM; for Degradation assay (Degradation %) 10 μM: compound 10 μM
Outline: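 HepG2 cells were treated 20-24 h at 37 °C with compound at 1 or 10 μM final. RIPA lysates were normalized by BCA, and 10-15 μg protein per lane was resolved by SDS-PAGE. MLKL was detected by western blot with chemiluminescence.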

Kd [2] | Degradation assay (Degradation %) 1 μM [3] | Degradation assay (Degradation %) 10 μM [3] | Structure (SMILES) | Necroptosis inhibition assay (Rescue %) 1 μM [1] | Necroptosis inhibition assay (Rescue %) 10 μM [1]
6.5 nM | 77.69% | 60.15% | Nc1ncc(-c2cnn(C3CCN(C(=O)CC4CCN(C(=O)C5CN(c6ccc7nnn(C8CCC(=O)NC8=O)c(=O)c7c6)C5)CC4)CC3)c2)nc1C(=O)O[C@@H](C(=O)Nc1ccc(F)cc1)c1ccccc1 (stereo partly drawn) [TDH-406, (R)-2-((4-fluorophenyl)amino)-2-oxo-1-phenylethyl 3-amino-6-(1-(1-(2-(1-(1-(3-(2,6-dioxopiperidin-3-yl)-4-oxo-3,4-dihydrobenzo[d][1,2,3]triazin-6-yl)azetidine-3-carbonyl)piperidin-4-yl)acetyl)piperidin-4-yl)-1H-pyrazol-4-yl)pyrazine-2-carboxylate] | 44.99% | 39.97%
7.5 nM | 83.70% | 79.77% | Nc1ncc(-c2cnn(C3CCN(C(=O)CC4CCN(C(=O)C5CCN(c6ccc7nnn(C8CCC(=O)NC8=O)c(=O)c7c6)CC5)CC4)CC3)c2)nc1C(=O)O[C@@H](C(=O)Nc1ccc(F)cc1)c1ccccc1 (stereo partly drawn) [TDH-407, (R)-2-((4-fluorophenyl)amino)-2-oxo-1-phenylethyl 3-amino-6-(1-(1-(2-(1-(1-(3-(2,6-dioxopiperidin-3-yl)-4-oxo-3,4-dihydrobenzo[d][1,2,3]triazin-6-yl)piperidine-4-carbonyl)piperidin-4-yl)acetyl)piperidin-4-yl)-1H-pyrazol-4-yl)pyrazine-2-carboxylate] | 52.02% | 42.95%
0.57 nM | 77.02% | 44.73% | Nc1ncc(-c2cnn(C3CCN(C(=O)C4CCN(C(=O)CNc5ccc6nnn(C7CCC(=O)NC7=O)c(=O)c6c5)CC4)CC3)c2)nc1C(=O)O[C@@H](C(=O)Nc1ccc(F)cc1)c1ccccc1 (stereo partly drawn) [TDH-408, (R)-2-((4-fluorophenyl)amino)-2-oxo-1-phenylethyl 3-amino-6-(1-(1-(1-((3-(2,6-dioxopiperidin-3-yl)-4-oxo-3,4-dihydrobenzo[d][1,2,3]triazin-6-yl)glycyl)piperidine-4-carbonyl)piperidin-4-yl)-1H-pyrazol-4-yl)pyrazine-2-carboxylate] | 26.68% | 19.89%
1.6 nM | 81.20% | 71.90% | Nc1ncc(-c2cnn(C3CCN(C(=O)C4CCN(C(=O)C5CN(c6ccc7nnn(C8CCC(=O)NC8=O)c(=O)c7c6)C5)CC4)CC3)c2)nc1C(=O)O[C@@H](C(=O)Nc1ccc(F)cc1)c1ccccc1 (stereo partly drawn) [TDH-409, (R)-2-((4-fluorophenyl)amino)-2-oxo-1-phenylethyl 3-amino-6-(1-(1-(1-(1-(3-(2,6-dioxopiperidin-3-yl)-4-oxo-3,4-dihydrobenzo[d][1,2,3]triazin-6-yl)azetidine-3-carbonyl)piperidine-4-carbonyl)piperidin-4-yl)-1H-pyrazol-4-yl)pyrazine-2-carboxylate] | 39.62% | 24.45%
1.1 nM | 85.29% | 65.91% | Nc1ncc(-c2cnn(C3CCN(C(=O)C4CCN(C(=O)C5CCN(c6ccc7nnn(C8CCC(=O)NC8=O)c(=O)c7c6)CC5)CC4)CC3)c2)nc1C(=O)O[C@@H](C(=O)Nc1ccc(F)cc1)c1ccccc1 (stereo partly drawn) [TDH-410, (R)-2-((4-fluorophenyl)amino)-2-oxo-1-phenylethyl 3-amino-6-(1-(1-(1-(1-(3-(2,6-dioxopiperidin-3-yl)-4-oxo-3,4-dihydrobenzo[d][1,2,3]triazin-6-yl)piperidine-4-carbonyl)piperidine-4-carbonyl)piperidin-4-yl)-1H-pyrazol-4-yl)pyrazine-2-carboxylate] | 48.51% | 27.36%
5.7 nM | 53.86% | 44.78% | Nc1ncc(-c2cnn(C3CCN(C(=O)CC4CCN(C(=O)CNc5cccc6nnn(C7CCC(=O)NC7=O)c(=O)c56)CC4)CC3)c2)nc1C(=O)O[C@@H](C(=O)Nc1ccc(F)cc1)c1ccccc1 (stereo partly drawn) [TDH-411, (R)-2-((4-fluorophenyl)amino)-2-oxo-1-phenylethyl 3-amino-6-(1-(1-(2-(1-((3-(2,6-dioxopiperidin-3-yl)-4-oxo-3,4-dihydrobenzo[d][1,2,3]triazin-5-yl)glycyl)piperidin-4-yl)acetyl)piperidin-4-yl)-1H-pyrazol-4-yl)pyrazine-2-carboxylate] | 9.91% | 10.81%
2.5 nM | 72.66% | 72.89% | Nc1ncc(-c2cnn(C3CCN(C(=O)CC4CCN(C(=O)C5CCN(c6cccc7nnn(C8CCC(=O)NC8=O)c(=O)c67)CC5)CC4)CC3)c2)nc1C(=O)O[C@@H](C(=O)Nc1ccc(F)cc1)c1ccccc1 (stereo partly drawn) [TDH-412, (R)-2-((4-fluorophenyl)amino)-2-oxo-1-phenylethyl 3-amino-6-(1-(1-(2-(1-(1-(3-(2,6-dioxopiperidin-3-yl)-4-oxo-3,4-dihydrobenzo[d][1,2,3]triazin-5-yl)piperidine-4-carbonyl)piperidin-4-yl)acetyl)piperidin-4-yl)-1H-pyrazol-4-yl)pyrazine-2-carboxylate] | 24.36% | 29.48%
0.92 nM | 71.41% | 57.83% | Nc1ncc(-c2cnn(C3CCN(C(=O)C4CCN(C(=O)CNc5cccc6nnn(C7CCC(=O)NC7=O)c(=O)c56)CC4)CC3)c2)nc1C(=O)O[C@@H](C(=O)Nc1ccc(F)cc1)c1ccccc1 (stereo partly drawn) [TDH-413, (R)-2-((4-fluorophenyl)amino)-2-oxo-1-phenylethyl 3-amino-6-(1-(1-(1-((3-(2,6-dioxopiperidin-3-yl)-4-oxo-3,4-dihydrobenzo[d][1,2,3]triazin-5-yl)glycyl)piperidine-4-carbonyl)piperidin-4-yl)-1H-pyrazol-4-yl)pyrazine-2-carboxylate] | 24.79% | 18.59%
0.79 nM | 75.28% | 74.89% | Nc1ncc(-c2cnn(C3CCN(C(=O)C4CCN(C(=O)C5CCN(c6cccc7nnn(C8CCC(=O)NC8=O)c(=O)c67)CC5)CC4)CC3)c2)nc1C(=O)O[C@@H](C(=O)Nc1ccc(F)cc1)c1ccccc1 (stereo partly drawn) [TDH-414, (R)-2-((4-fluorophenyl)amino)-2-oxo-1-phenylethyl 3-amino-6-(1-(1-(1-(1-(3-(2,6-dioxopiperidin-3-yl)-4-oxo-3,4-dihydrobenzo[d][1,2,3]triazin-5-yl)piperidine-4-carbonyl)piperidine-4-carbonyl)piperidin-4-yl)-1H-pyrazol-4-yl)pyrazine-2-carboxylate] | 17.52% | 13.19%
1.7 nM | 89.91% | 90.14% | Nc1ncc(-c2cnn(C3CCN(C(=O)CCC4CCN(C(=O)COc5cccc6c5C(=O)N(C5CCC(=O)NC5=O)C6=O)CC4)CC3)c2)nc1C(=O)O[C@@H](C(=O)Nc1ccc(F)cc1)c1ccccc1 (stereo partly drawn) [TDH-415, (R)-2-((4-fluorophenyl)amino)-2-oxo-1-phenylethyl 3-amino-6-(1-(1-(3-(1-(2-((2-(2,6-dioxopiperidin-3-yl)-1,3-dioxoisoindolin-4-yl)oxy)acetyl)piperidin-4-yl)propanoyl)piperidin-4-yl)-1H-pyrazol-4-yl)pyrazine-2-carboxylate] | 41.74% | 40.81%
2.4 nM | 93.24% | 93.04% | Nc1ncc(-c2cnn(C3CCN(C(=O)CCC4CCN(C(=O)COc5ccc6c(c5)C(=O)N(C5CCC(=O)NC5=O)C6=O)CC4)CC3)c2)nc1C(=O)O[C@@H](C(=O)Nc1ccc(F)cc1)c1ccccc1 (stereo partly drawn) [TDH-416, (R)-2-((4-fluorophenyl)amino)-2-oxo-1-phenylethyl 3-amino-6-(1-(1-(3-(1-(2-((2-(2,6-dioxopiperidin-3-yl)-1,3-dioxoisoindolin-5-yl)oxy)acetyl)piperidin-4-yl)propanoyl)piperidin-4-yl)-1H-pyrazol-4-yl)pyrazine-2-carboxylate] | 52.88% | 43.06%
